Data set [1] is described as follows: Evaluation of separation efficiency: excision of the compound from the carrier with trifluoroacetic acid/dichloromethane, material consumption by HPLC. Format: physicochemical. On the procedure:
By stirring the obtained compound 7 (4-iodo-benzoic acid 2,4-bis-octadecyloxybenzyl ester) in solvents listed in Table 2 and for the times shown in Table 2, separation of the compound from the carrier was performed to obtain the reaction rate. In this case, the reaction rate was calculated by assessing the disappearance of material by HPLC.
Regarding compound 9 (4-iodo-benzoic acid 3,4,5-tris-octadecyloxybenzyl ester) having the following formula 6, which was prepared by condensing 4-iodobenzoic acid to compound 6 (3,4,5-tris-octadecyloxybenzyl alcohol), the separation reaction rate was measured under various conditions similar to in Example 2.
The above-obtained compound was evaluated for the separation efficiency, similar to Example 3, when it was stirred in dichloromethane containing 1% trifluoroacetic acid for 30 min. As a result, the reaction rate was 100%.

A short description of data set [2]: Evaluation of solubility in organic solvents at 25° C. Format: physicochemical. The conditions noted are these: tetrahydrofuran, organic solvent or mixture. As for the experimental part: The compound 2 (2,4-bisoctadecyloxyphenylmethanol) thus obtained was measured for solubility in hexane, cyclohexane, dichloromethane and tetrahydrofuran, respectively, when used as solvents at 25° C.
3,4,5-Tris-octadecyloxybenzylalcohol (compound 6) having the following chemical formula was measured for solubility in various solvents at 25° C. similar to as in Example 1.

Setting [3] is: 1% trifluoroacetic acid/dichloromethane, 30 min.
Where [4] appears, read: 10% trifluoroacetic acid/dichloromethane, 120 min.
The mark [5] stands for this setting: 50% trifluoroacetic acid/dichloromethane, 120 min.

≈ marks a conversion by molar mass, not a printed value.

For `CCCCCCCCCCCCCCCCCCOc1ccc(COC(=O)c2ccc(I)cc2)c(OCCCCCCCCCCCCCCCCCC)c1` [Compound 7, 4-iodo-benzoic acid 2,4-bis-octadecyloxybenzyl ester], the “Reaction rate (material consumption evaluated by HPLC measurement)” value (from here on “Reaction rate”) in data set [1] (setting [3]), in data set [1] (setting [4]) and in data set [1] (setting [5]) was 100% throughout.

Regarding `CCCCCCCCCCCCCCCCCCCCCCOc1ccc(CO)c(OCCCCCCCCCCCCCCCCCCCCCC)c1` [2,4-bis-docosanoxyphenyl methanol], the solubility in data set [2] came out at 236 mg/mL (≈ 312 mM).

Turning to `CCCCCCCCCCCCCCCCCCOc1cc(COC(=O)c2ccc(I)cc2)cc(OCCCCCCCCCCCCCCCCCC)c1OCCCCCCCCCCCCCCCCCC` [Compound 9, 4-iodo-benzoic acid 3,4,5-tris-octadecyloxybenzyl ester, reference compound], the figures for the “Reaction rate” value in data set [1] (setting [3]), in data set [1] (setting [4]) and in data set [1] (setting [5]) were 1< %, 12% and 100%, respectively.

As to `CCCCCCCCCCCCCCCCCCCCCCOc1ccc(COC(=O)c2ccc(I)cc2)c(OCCCCCCCCCCCCCCCCCCCCCC)c1` [4-iodo-benzoic acid 2,4-bis-docosanoxybenzyl ester], in data set [1] (setting [3]), the “Reaction rate” value came out at 100%.

Values taken from patent US9284348B2, “Method for synthesis of peptide using a carrier” (JITSUBO Co., Ltd., priority 2005, dated 2016).
